Test results reported in patent US20110111980A1, “METHOD FOR PROFILING DRUG COMPOUNDS” (priority 2008, published 2011).

Key:
[1] = test system: UT-SCC-9, UT-SCC-27, UT-SCC-54C, and UT-SCC-76; assay: PamChip kinase inhibition profiles of 4 patient derived head and neck squamous cell carcinoma cell lines; format: biochemical; settings: selected set of peptides, FIG. 3b
Experimental: Cells were harvested and were lysed in Mammalian Extraction Buffer (M-PER, Pierce) containing phosphatase and protease inhibitors (HALT, Pierce). Five microliter of the lysis solution was pipetted into a reaction mixture composed of 1×ABL buffer (New England Biolabs, cat.nr B6050S), 0.1% Bovine Serum Albumin, 100 μM ATP, 20 μg/ml phosphotyrosine antibody to an end volume of 40 microliter. Before incubation a blocking step was carried out on the substrate arrays with 0.2% bovine serum albumin. […] Real time data were obtained by measuring fluorescence of the bound anti-phosphotyrosine antibody after each 5 cycles. Image quantification and data processing was conducted with dedicated Pamgene software (Evolve and Bionavigator).
The 4 cell lines chosen, UT-SCC-9, UT-SCC-27, UT-SCC-54C, and UT-SCC-76 are patient derived cell lines, known to respond differently to radiation (in a model for therapy in head and neck cancer, squamous cell carcinomas, especially). […] The data shown are from a selected set of peptides of which the ratios of phosphorylation in the absence (0) and presence of the inhibitor are represented.

[2] = test system: Non Small Cell Lung Cancer (NSCLC) tissue; assay: PamChip kinase activity of NSCLC tumor tissue lysates with and without inhibitor; format: biochemical; settings: 1 μmol/L inhibitor, short vs long survival patients, data not shown

For `Cc1ccc(-c2nn(C(C)(C)C)c3ncnc(N)c23)cc1` [PP1], the “inhibition profiles (ratios of phosphorylation in the absence and presence of the inhibitor), differences between cell lines” value [1] was “pronounced differences”.
`COc1cc2ncnc(Nc3ccc(F)c(Cl)c3)c2cc1OCCCN1CCOCC1` [Gefitinib] was tested, and the “differences between the phosphorylation profiles with and without the protein kinase inhibitor” value [2] was “a number of essential differences”.
